From patent publication US10975056B2 (GlaxoSmithKline Intellectual Property Development Limited, priority 2016, dated 2021)
Several values for one entry are separate records, joined by “and”; a condition that tells them apart may be missing. Identical values can stand only once. Counter-ions that a name gives are not always drawn. Like-named read-outs stand apart in the source and are kept apart here.

Tests used:
[1] = test system: erythroid progenitor cells (EPCs); assay: Fetal hemoglobin (HbF) ELISA in day 7 erythroid progenitor cells; type: cell-based, human; settings: Homo sapiens, Erythroid progenitor cell, HbF ELISA, day 7 EPCs, 5 days; read-out: EPC ELISA (pEC50 category) (converted);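 further: for fetal hemoglobin induction normalized to vehicle-treated cells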
Procedure, shortened: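 HbF induction was read by anti-HbF sandwich ELISA (HRP/TMB, OD450) on lysates and normalized to vehicle-treated cells. Cells were day 7 erythroid progenitors derived from human bone marrow CD34+ cells, seeded at 1,000/well with 3 U/mL rhEPO. Compound was given for 5 days at 37 °C at final concentrations […].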

DNMT1 = DNMT1 (Homo sapiens, UniProt P26358); assay: DNMT1 biochemical activity, breaklight assay and/or SPA assay
[2] = binned activity in either the breaklight or the SPA assay
[3] = binned activity in either the breaklight or the SPA assay, read-out: DNMT1 BioChemical (pIC50 category) (converted)
[4] = breaklight assay and/or SPA assay, repeated experimental runs, read-out: average pIC50 against DNMT1 (converted)

Chain of DNMT1 (P26358 whole entry, looked up): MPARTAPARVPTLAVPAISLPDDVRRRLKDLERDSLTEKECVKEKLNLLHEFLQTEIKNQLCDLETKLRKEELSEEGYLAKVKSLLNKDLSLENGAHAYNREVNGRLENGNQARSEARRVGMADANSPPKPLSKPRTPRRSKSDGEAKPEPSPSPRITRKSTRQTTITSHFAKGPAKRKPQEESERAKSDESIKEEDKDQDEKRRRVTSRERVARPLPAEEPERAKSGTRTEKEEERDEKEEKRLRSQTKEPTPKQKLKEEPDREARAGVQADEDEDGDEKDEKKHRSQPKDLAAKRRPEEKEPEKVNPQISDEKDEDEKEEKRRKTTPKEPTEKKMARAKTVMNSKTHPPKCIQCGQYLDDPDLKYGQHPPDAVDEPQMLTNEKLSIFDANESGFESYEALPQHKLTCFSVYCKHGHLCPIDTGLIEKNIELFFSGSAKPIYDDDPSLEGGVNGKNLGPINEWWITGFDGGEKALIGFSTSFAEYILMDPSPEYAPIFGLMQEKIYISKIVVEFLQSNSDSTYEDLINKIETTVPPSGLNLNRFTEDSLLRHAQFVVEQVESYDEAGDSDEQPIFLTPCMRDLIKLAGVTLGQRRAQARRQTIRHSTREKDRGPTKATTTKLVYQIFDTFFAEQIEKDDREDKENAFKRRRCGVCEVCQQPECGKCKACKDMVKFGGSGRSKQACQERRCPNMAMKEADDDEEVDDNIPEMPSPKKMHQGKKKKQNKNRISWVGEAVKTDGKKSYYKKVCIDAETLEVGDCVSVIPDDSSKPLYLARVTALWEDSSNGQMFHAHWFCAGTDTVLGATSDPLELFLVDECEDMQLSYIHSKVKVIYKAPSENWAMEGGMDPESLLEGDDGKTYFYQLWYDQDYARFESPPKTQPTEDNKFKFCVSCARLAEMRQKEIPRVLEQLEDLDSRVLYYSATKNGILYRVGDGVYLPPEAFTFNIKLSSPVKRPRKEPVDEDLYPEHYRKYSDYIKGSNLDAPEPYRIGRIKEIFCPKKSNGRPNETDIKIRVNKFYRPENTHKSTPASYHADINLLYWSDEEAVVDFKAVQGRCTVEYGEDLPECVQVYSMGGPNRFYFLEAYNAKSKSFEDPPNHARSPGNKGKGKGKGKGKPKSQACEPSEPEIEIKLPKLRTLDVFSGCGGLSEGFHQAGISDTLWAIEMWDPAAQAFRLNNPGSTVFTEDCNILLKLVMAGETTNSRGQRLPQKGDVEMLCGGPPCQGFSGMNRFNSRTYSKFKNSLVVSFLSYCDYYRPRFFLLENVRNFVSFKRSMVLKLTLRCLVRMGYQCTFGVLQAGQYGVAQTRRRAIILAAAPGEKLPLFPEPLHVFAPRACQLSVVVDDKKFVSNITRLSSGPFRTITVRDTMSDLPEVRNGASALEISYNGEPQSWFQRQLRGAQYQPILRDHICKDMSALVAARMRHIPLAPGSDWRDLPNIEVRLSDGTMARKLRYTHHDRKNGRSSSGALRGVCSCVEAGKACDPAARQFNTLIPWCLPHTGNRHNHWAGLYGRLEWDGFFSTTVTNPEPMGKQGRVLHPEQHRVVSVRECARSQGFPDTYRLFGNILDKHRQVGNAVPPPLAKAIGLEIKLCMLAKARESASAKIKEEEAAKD

Row | SMILES | EC50 [1] [µM] | DNMT1 BioChemical (pIC50 category) (DNMT1; [2]) | IC50 (DNMT1; [3]) [µM] | IC50 (DNMT1; [4]) | average pIC50 against DNMT1 (DNMT1; breaklight assay and/or SPA assay, repeated experimental runs)
1 | CCc1c(C#N)c(SCc2ccc(CNC(C)=O)cc2)nc(N2CC(OC(=O)[C@@H](N)C(C)C)C2)c1C#N [Example 282, (S)-1-(6-((4-(Acetamidomethyl)benzyl)thio)-3,5-dicyano-4-ethylpyridin-2-yl)azetidin-3-yl 2-amino-3-methylbutanoate, Trifluoroacetic Acid Salt] | 1 to 31.6 | D (Category D: ≥6.5) | – | – | –
2 | CCc1c(C#N)c(SC(C(N)=O)c2ccccc2)nc(N(C)CC(=O)N2CCOCC2)c1C#N (stereo not shown) [Example 623, 2-((3,5-dicyano-4-ethyl-6-(methyl(2-morpholino-2-oxoethyl)amino)pyridin-2-yl)thio)-2-phenylacetamide] | < 0.316 | D (Category D: ≥6.5) | – | – | –
3 | CCc1c(C#N)c(SC(C(N)=O)c2ccccc2)nc(N(C)CC(=O)N2CCO[C@@H](CO)C2)c1C#N (stereo partly drawn) [Example 662, 2-((3,5-dicyano-4-ethyl-6-((2-((R)-2-(hydroxymethyl)morpholino)-2-oxoethyl)(methyl)amino)pyridin-2-yl)thio)-2-phenylacetamide] | < 0.316 | D (Category D: ≥6.5) | – | – | –
4 | CCc1c(C#N)c(SCc2ccc(N(C)S(C)(=O)=O)cc2)nc(N2CCC(NCCOC)CC2)c1C#N [Example 557, N-(4-(((3,5-dicyano-4-ethyl-6-(4-((2-methoxyethyl)amino)piperidin-1-yl)pyridin-2-yl)thio)methyl)phenyl)-N-methylmethanesulfonamide] | < 0.316 | D (Category D: ≥6.5) | – | – | –
5 | CCc1c(C#N)c(S[C@@H](C(N)=O)c2ccccc2)nc(N2CC[C@@H](N)[C@H](F)C2)c1C#N [Example 518, (R)-2-((6-((3R,4R)-4-amino-3-fluoropiperidin-1-yl)-3,5-dicyano-4-ethylpyridin-2-yl)thio)-2-phenylacetamide, Trifluoroacetic acid salt] | < 0.316 | D (Category D: ≥6.5) | – | – | –
6 | CCc1c(C#N)c(SC(C(N)=O)c2ccccc2)nc(N(C)Cc2cc[nH]n2)c1C#N (stereo not shown) [Example 356, 2-((6-(((1H-Pyrazol-3-yl)methyl)(methyl)amino)-3,5-dicyano-4-ethylpyridin-2-yl)thio)-2-phenylacetamide] | 0.316 to 1 | D (Category D: ≥6.5) | – | – | –
7 | CCc1c(C#N)c(SC(C(N)=O)c2ccccc2)nc(N(C)C2CC(N)C2)c1C#N (stereo not shown) [Example 498, 2-((6-((3-aminocyclobutyl)(methyl)amino)-3,5-dicyano-4-ethylpyridin-2-yl)thio)-2-phenylacetamide] | 0.316 to 1 | D (Category D: ≥6.5) | – | – | –
8 | CN(CC(N)=O)c1nc(SC(C(N)=O)c2ccccc2)c(C#N)c(C2CC2)c1C#N (stereo not shown) [Example 396, 2-((6-((2-Amino-2-oxoethyl)(methyl)amino)-3,5-dicyano-4-cyclopropylpyridin-2-yl)thio)-2-phenylacetamide] | 1 to 31.6 | – | 0.316 to 1 | – | –
9 | CCc1c(C#N)c(SCc2ccc(CNC(=O)CCN)cc2)nc(N(C)C)c1C#N [Example 279, 3-Amino-N-(4-(((3,5-dicyano-6-(dimethylamino)-4-ethylpyridin-2-yl)thio)methyl)benzyl)propanamide] | > 31.6 | – | 0.316 to 1 | ≥ 1 µM and 1 µM | –
10 | CCc1c(C#N)c(SC(C(N)=O)c2ccccc2)nc(N(C)CCN2[C@H](C)CC[C@H]2C)c1C#N (stereo partly drawn) [Example 485, 2-((3,5-dicyano-6-((2-((2R,5R)-2,5-dimethylpyrrolidin-1-yl)ethyl)(methyl)amino)-4-ethylpyridin-2-yl)thio)-2-phenylacetamide] | < 0.316 | D (Category D: ≥6.5) | – | – | –
11 | CCc1c(C#N)c(SCc2ccc(CNC(=O)OC(C)(C)C)cc2)nc(N2CCCN(C)CC2)c1C#N [Example 69, tert-Butyl 4-(((3,5-dicyano-4-ethyl-6-(4-methyl-1,4-diazepan-1-yl)pyridin-2-yl)thio)methyl)benzylcarbamate] | > 31.6 | – | 1 to 31.6 | ≥ 1 µM | –
12 | CCc1c(C#N)c(S[C@H](C(N)=O)c2ccccc2)nc(N2CC[C@H](N)[C@H](F)C2)c1C#N [Example 540, (S)-2-((6-((3R,4S)-4-amino-3-fluoropiperidin-1-yl)-3,5-dicyano-4-ethylpyridin-2-yl)thio)-2-phenylacetamide 2,2,2-trifluoroacetate] | < 0.316 | – | 1 to 31.6 | ≥ 1 µM and 3.16 µM | –
13 | CCc1c(C#N)c(S[C@@H](C(N)=O)c2ccccc2)nc(N2CC[C@H](N)[C@@H](F)C2)c1C#N [Example 519, (R)-2-((6-((3S,4S)-4-amino-3-fluoropiperidin-1-yl)-3,5-dicyano-4-ethylpyridin-2-yl)thio)-2-phenylacetamide, Trifluoroacetic acid salt] | < 0.316 | D (Category D: ≥6.5) | – | – | –
14 | CC(C)(N)C(=O)NC1CCN(c2nc(SC(C(N)=O)c3ccccc3)c(C#N)c(C3CC3)c2C#N)CC1 (stereo not shown) [Example 374, 2-Amino-N-(1-(6-((2-amino-2-oxo-1-phenylethyl)thio)-3,5-dicyano-4-cyclopropylpyridin-2-yl)piperidin-4-yl)-2-methylpropanamide] | 0.316 to 1 | D (Category D: ≥6.5) | – | – | –
15 | CCc1c(C#N)c(SCc2ccc(-c3ccccn3)cc2)nc(N2CCC(N3CCCC3)CC2)c1C#N [Example 350, 4-Ethyl-2-((4-(pyridin-2-yl)benzyl)thio)-6-(4-(pyrrolidin-1-yl)piperidin-1-yl)pyridine-3,5-dicarbonitrile] | > 31.6 | – | 0.316 to 1 | – | –
16 | CCC(=O)NCc1ccc(CSc2nc(N3CCCN(C)CC3)c(C#N)c(CC)c2C#N)cc1 [Example 87, N-(4-(((3,5-Dicyano-4-ethyl-6-(4-methyl-1,4-diazepan-1-yl)pyridin-2-yl)thio)methyl)benzyl)propionamide] | 0.316 to 1 | D (Category D: ≥6.5) | – | – | –

Continued, values first:

Row | EC50 [1] [µM] | DNMT1 BioChemical (pIC50 category) (DNMT1; [2]) | IC50 (DNMT1; [3]) [µM] | IC50 (DNMT1; [4]) | average pIC50 against DNMT1 (DNMT1; breaklight assay and/or SPA assay, repeated experimental runs) | SMILES
17 | < 0.316 | – | 0.316 to 1 | 0.316 to 1 µM and 0.398 µM | – | CCc1c(C#N)c(SC(C(N)=O)c2ccccc2)nc(N2CCC3(CCCN(CC4CC4)C3)CC2)c1C#N (stereo not shown) [Example 119, 2-((3,5-Dicyano-6-(2-(cyclopropylmethyl)-2,9-diazaspiro[5.5]undecan-9-yl)-4-ethylpyridin-2-yl)thio)-2-phenylacetamide hydrochloride]
18 | < 0.316 | D (Category D: ≥6.5) | – | – | – | CN(C)C1CCN(c2nc(SC(C(N)=O)c3ccccc3)c(C#N)c(C3CC3)c2C#N)CC1 (stereo not shown) [Example 29, 2-((3,5-dicyano-4-cyclopropyl-6-(4-(dimethylamino)piperidin-1-yl)pyridin-2-yl)thio)-2-phenylacetamide]
19 | < 0.316 | D (Category D: ≥6.5) | – | – | – | CCc1c(C#N)c(SC(C(N)=O)c2ccccc2)nc(N2CCC(NCc3ccccc3)CC2)c1C#N (stereo not shown) [Example 455, 2-(6-(4-(benzylamino)piperidin-1-yl)-3,5-dicyano-4-ethylpyridin-2-ylthio)-2-phenylacetamide]
20 | < 0.316 | D (Category D: ≥6.5) | – | 0.158 µM | > 6.5 | CCc1c(C#N)c(SC(C(N)=O)c2ccccc2)nc(N2CCO[C@H](CNC(=O)CN)C2)c1C#N (stereo partly drawn) [Example 592, 2-amino-N-(((2R)-4-(6-((2-amino-2-oxo-1-phenylethyl)thio)-3,5-dicyano-4-ethylpyridin-2-yl)morpholin-2-yl)methyl)acetamide]
21 | < 0.316 | D (Category D: ≥6.5) | – | – | – | CCc1c(C#N)c(SC(C(N)=O)c2ccccc2)nc(N2CCC(CN(C)C)C2)c1C#N (stereo not shown) [Example 512, 2-((3,5-dicyano-6-(3-((dimethylamino)methyl)pyrrolidin-1-yl)-4-ethylpyridin-2-yl)thio)-2-phenylacetamide]
22 | 1 to 31.6 | D (Category D: ≥6.5) | – | – | – | CCc1c(C#N)c(SC(C(N)=O)c2ccccc2)nc(N2CC(ONC(=N)N)C2)c1C#N (stereo not shown) [Example 676, 2-((3,5-dicyano-4-ethyl-6-(3-(guanidinooxy)azetidin-1-yl)pyridin-2-yl)thio)-2-phenylacetamide]
23 | 1 to 31.6 | D (Category D: ≥6.5) | – | – | – | CCc1c(C#N)c(SC(C(N)=O)c2ccccc2)nc(N2CCC(NC(=O)C3(N)COC3)CC2)c1C#N (stereo not shown) [Example 186, 3-Amino-N-(1-(6-((2-amino-2-oxo-1-phenylethyl)thio)-3,5-dicyano-4-ethylpyridin-2-yl)piperidin-4-yl)oxetane-3-carboxamide]
24 | 1 to 31.6 | D (Category D: ≥6.5) | – | – | – | CCc1c(C#N)c(SC(C(N)=O)c2ccccc2)nc(N2CC(NC(=O)CO)C2)c1C#N (stereo not shown) [Example 288, N-(1-(6-((2-Amino-2-oxo-1-phenylethyl)thio)-3,5-dicyano-4-ethylpyridin-2-yl)azetidin-3-yl)-2-hydroxyacetamide]
25 | 0.316 to 1 | – | 0.316 to 1 | – | – | CSc1c(C#N)c(SC(C(N)=O)c2ccccc2)nc(N2CCCN(C)CC2)c1C#N (stereo not shown) [Example 202, 2-((3,5-Dicyano-6-(4-methyl-1,4-diazepan-1-yl)-4-(methylthio)pyridin-2-yl)thio)-2-phenylacetamide]
26 | < 0.316 | D (Category D: ≥6.5) | – | – | – | CCc1c(C#N)c(SC(C(N)=O)c2ccccc2)nc(N2CCC[C@H](NC3COC3)C2)c1C#N (stereo partly drawn) [Example 640, 2-((3,5-dicyano-4-ethyl-6-((S)-3-(oxetan-3-ylamino)piperidin-1-yl)pyridin-2-yl)thio)-2-phenylacetamide]
